From ChEMBL document CHEMBL3132769, “Fragment growing to retain or alter the selectivity of anchored kinase hinge-binding fragments” (Medchemcomm, 2014)

Experiments:
[1] = target: Protein kinase C theta type (Homo sapiens) (UniProt Q04759); assay: Inhibition of human truncated PKC theta expressed in baculovirus assessed as substrate phosphorylation using fluorescence-labelled peptides as substrate at 0.2 uM after 90 mins by microfluidic peptide phosphorylation assay
[2] = target: T1, Serine/threonine-protein kinase D2 (Homo sapiens) (UniProt Q9BZL6); assay: Inhibition of human full length PKD2 expressed in baculovirus assessed as substrate phosphorylation using fluorescence-labelled peptides as substrate at 0.2 uM after 90 mins by microfluidic peptide phosphorylation assay
T1 sequence (whole entry): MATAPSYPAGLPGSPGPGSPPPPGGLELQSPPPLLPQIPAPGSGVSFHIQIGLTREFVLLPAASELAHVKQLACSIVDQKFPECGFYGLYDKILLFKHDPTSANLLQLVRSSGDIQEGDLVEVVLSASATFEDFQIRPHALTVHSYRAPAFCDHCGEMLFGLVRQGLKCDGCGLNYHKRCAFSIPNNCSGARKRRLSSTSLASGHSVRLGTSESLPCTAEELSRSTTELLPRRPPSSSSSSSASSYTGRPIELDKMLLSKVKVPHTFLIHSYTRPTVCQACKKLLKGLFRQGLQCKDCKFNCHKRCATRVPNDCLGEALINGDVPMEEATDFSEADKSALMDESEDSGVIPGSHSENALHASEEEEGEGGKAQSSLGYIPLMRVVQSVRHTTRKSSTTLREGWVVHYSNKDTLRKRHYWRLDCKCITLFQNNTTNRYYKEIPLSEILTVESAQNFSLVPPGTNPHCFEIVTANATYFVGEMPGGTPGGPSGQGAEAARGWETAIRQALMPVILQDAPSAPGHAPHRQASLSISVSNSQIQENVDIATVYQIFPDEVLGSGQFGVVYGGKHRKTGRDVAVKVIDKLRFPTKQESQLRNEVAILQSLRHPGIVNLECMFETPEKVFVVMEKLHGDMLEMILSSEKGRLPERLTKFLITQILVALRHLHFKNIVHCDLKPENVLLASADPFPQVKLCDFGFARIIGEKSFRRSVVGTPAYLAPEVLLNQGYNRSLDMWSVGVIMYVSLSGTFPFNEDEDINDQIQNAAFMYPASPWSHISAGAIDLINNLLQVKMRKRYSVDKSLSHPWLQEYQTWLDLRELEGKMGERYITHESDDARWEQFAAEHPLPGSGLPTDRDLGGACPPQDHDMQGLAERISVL

[3] = target: T2, Aurora kinase C (Homo sapiens) (UniProt Q9UQB9); assay: Inhibition of human full length AurC expressed in baculovirus assessed as substrate phosphorylation using fluorescence-labelled peptides as substrate at 0.06 uM after 90 mins by microfluidic peptide phosphorylation assay
T2 sequence (whole entry): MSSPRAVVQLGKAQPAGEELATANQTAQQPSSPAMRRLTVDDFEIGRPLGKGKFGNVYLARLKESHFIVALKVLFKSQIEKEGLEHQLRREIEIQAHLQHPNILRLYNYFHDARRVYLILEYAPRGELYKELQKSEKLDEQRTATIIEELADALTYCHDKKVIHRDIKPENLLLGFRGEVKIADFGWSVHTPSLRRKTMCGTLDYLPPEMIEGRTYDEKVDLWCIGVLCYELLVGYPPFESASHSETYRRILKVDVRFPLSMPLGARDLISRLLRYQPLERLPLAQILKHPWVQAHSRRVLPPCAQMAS

[4] = target: T3, Serine/threonine-protein kinase BRSK1 (Homo sapiens) (UniProt Q8TDC3); assay: Inhibition of human full length BRSK1 expressed in baculovirus assessed as substrate phosphorylation using fluorescence-labelled peptides as substrate at 0.1 uM after 90 mins by microfluidic peptide phosphorylation assay
T3 sequence (whole entry): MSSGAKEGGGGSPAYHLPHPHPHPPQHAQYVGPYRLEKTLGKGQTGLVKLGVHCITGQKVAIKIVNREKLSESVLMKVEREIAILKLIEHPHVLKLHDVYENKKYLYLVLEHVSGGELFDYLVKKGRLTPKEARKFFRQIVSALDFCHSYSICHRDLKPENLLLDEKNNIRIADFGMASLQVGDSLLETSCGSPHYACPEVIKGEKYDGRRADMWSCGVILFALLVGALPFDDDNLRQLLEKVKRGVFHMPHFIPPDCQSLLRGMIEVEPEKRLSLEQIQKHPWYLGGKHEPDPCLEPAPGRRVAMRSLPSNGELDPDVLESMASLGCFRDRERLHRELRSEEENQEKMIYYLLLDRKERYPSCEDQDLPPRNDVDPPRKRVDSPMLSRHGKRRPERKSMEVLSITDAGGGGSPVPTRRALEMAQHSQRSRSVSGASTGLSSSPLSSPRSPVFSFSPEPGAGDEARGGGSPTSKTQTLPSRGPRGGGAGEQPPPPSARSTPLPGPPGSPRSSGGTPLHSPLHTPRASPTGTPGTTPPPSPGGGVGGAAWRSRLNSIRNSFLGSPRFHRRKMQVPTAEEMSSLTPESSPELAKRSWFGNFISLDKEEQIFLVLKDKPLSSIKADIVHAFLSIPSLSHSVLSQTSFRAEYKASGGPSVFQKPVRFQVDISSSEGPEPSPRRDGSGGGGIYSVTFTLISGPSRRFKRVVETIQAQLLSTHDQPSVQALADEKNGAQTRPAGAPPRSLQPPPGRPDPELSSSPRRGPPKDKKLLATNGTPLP

[5] = target: T4, Serine/threonine-protein kinase Sgk3 (Homo sapiens) (UniProt Q96BR1); assay: Inhibition of human full length SGK3 expressed in baculovirus assessed as substrate phosphorylation using fluorescence-labelled peptides as substrate at 420 uM after 90 mins by microfluidic peptide phosphorylation assay
T4 sequence (whole entry): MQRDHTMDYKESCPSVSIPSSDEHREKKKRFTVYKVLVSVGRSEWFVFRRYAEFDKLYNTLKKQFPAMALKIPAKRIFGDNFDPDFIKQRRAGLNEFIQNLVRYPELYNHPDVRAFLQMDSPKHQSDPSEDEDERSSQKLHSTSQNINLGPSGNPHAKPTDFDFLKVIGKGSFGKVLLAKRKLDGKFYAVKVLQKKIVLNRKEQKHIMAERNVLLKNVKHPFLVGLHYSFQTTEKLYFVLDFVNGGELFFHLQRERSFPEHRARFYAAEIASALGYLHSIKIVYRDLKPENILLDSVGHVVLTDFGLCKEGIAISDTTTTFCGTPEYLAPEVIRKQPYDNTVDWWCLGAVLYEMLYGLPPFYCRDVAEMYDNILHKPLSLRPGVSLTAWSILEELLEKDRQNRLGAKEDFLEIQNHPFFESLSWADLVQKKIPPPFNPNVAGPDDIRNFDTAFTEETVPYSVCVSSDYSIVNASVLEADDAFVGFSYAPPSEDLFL

[6] = target: Protein kinase C theta type (Homo sapiens) (UniProt Q04759); assay: Inhibition of human truncated PKC theta expressed in baculovirus assessed as substrate phosphorylation using fluorescence-labelled peptides as substrate at 420 uM after 90 mins by microfluidic peptide phosphorylation assay
[7] = target: Protein kinase C eta type (Homo sapiens) (UniProt P24723); assay: Inhibition of human truncated PKC eta expressed in baculovirus assessed as substrate phosphorylation using fluorescence-labelled peptides as substrate at 70 uM after 90 mins by microfluidic peptide phosphorylation assay
Chain of Protein kinase C eta type (Homo sapiens) (P24723 whole entry, the tested form may be a part): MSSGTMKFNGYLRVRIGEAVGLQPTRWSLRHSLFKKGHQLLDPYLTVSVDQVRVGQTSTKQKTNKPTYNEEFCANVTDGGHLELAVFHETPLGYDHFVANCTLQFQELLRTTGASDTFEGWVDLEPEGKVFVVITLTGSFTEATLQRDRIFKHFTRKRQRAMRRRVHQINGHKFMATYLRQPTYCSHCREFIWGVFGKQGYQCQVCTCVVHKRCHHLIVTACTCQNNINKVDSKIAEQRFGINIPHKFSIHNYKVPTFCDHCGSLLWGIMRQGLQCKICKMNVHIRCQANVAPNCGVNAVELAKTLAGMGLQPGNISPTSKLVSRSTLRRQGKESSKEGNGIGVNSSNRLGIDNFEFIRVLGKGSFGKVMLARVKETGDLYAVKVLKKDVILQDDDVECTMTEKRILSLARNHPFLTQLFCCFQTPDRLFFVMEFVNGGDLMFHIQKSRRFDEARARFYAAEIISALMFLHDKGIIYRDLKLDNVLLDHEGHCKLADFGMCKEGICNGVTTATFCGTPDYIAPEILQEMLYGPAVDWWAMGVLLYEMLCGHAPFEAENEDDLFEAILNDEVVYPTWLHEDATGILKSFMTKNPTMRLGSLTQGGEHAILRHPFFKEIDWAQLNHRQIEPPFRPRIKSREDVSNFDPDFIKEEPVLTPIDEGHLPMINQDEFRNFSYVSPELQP

Chain of Protein kinase C theta type (Homo sapiens) (Q04759 whole entry, looked up, the tested form may be a part): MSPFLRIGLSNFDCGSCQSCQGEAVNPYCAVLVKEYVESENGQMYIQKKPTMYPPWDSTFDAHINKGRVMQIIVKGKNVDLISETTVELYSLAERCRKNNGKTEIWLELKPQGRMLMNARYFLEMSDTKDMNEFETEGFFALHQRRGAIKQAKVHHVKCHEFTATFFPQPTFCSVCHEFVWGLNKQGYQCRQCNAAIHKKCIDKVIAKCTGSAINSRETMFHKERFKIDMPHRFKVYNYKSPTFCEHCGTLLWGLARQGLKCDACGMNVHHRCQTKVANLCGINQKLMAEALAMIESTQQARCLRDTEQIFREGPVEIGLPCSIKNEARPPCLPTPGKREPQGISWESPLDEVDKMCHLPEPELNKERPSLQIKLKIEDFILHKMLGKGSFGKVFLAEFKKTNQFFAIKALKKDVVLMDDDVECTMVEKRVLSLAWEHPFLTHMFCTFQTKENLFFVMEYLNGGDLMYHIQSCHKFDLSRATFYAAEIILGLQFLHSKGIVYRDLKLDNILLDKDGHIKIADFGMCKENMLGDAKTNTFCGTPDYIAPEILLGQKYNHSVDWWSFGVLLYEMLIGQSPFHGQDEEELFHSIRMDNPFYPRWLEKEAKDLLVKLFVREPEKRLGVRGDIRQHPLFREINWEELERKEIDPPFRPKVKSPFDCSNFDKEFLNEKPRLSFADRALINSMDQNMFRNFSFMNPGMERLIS

## Clc1ccc(C2(c3ccc(-c4ncnc5[nH]cnc45)cc3)CCNCC2)cc1
[1]
  inhibition: 31.5%
[2]
  inhibition: 13%

## NC1(Cc2ccc(Cl)cc2)CCN(c2ncnc3[nH]ccc23)CC1
[3]
  inhibition: 0%

## C[C@H](CN(C)C)Oc1nc(Nc2cc3cccc(Cl)c3cn2)cnc1C#N
[4]
  inhibition: 16.5%

## c1nc(N2CCOCC2)c2nc[nH]c2n1
[5]
  inhibition: 63%
[6]
  inhibition: 67.5%

## CNCc1ccc(-c2ncnc3[nH]cnc23)cc1
[7]
  inhibition: 78.5%
